Columns and labels:
dopamine D3 receptor = biological target: T1, dopamine D3 receptor (Homo sapiens, UniProt P35462); assay: Novascreen receptor affinity screen (competition with reference ligand), dopamine D3; assay type: binding; details: 1 μM Captodiamine competing with a reference ligand; read-out: percent target inhibition, dopamine D3 receptor
T1 construct: Novascreen (contract screen)
Description: (§1) The Structure (FIG. 9A), receptor affinity (FIG. 9B), pharmacokinetics (FIG. 9C) and growth factor modulation (FIG. 9D) of Captodiamine are provided. Analysis of receptor affinities was performed by Novascreen™ and those displacing >20% of the natural ligand are indicated by the filled boxes. Blood levels of Captodiamine were determined by GC mass spectroscopy. In separate samples taken from a cannulated jugular at increasing time intervals following a single intraperitoneal injection of tha drug (5 mg/kg). Growth factor analysis was performed using tissue homogenates and ELISA assays specific for each growth factor (Promega). Values were analysed using a Student t-test and those with a p value<0.05 were accepted as significant and are indicated with an asterisk.
(§2) The higher the target inhibition value, the greater the affinity Captodiamine has for this particular receptor as it displaces a greater proportion of the reference ligand. This assay is an automated high throughput assay performed on cell lines that express only one type of receptor and was carried out by Novascreen (www.novascreen.com). Receptor affinity is a good starting point for determining the mechanism of action for a particular compound.

serotonin 5HT2c receptor = biological target: T2, serotonin 5HT2c receptor (Homo sapiens, UniProt P28335); assay: Novascreen receptor affinity screen (competition with reference ligand), 5HT2c; assay type: binding; details: 1 μM Captodiamine competing with a reference ligand; read-out: percent target inhibition, serotonin 5HT2c receptor
T2 construct: Novascreen (contract screen)
T2 sequence (P28335 33-458): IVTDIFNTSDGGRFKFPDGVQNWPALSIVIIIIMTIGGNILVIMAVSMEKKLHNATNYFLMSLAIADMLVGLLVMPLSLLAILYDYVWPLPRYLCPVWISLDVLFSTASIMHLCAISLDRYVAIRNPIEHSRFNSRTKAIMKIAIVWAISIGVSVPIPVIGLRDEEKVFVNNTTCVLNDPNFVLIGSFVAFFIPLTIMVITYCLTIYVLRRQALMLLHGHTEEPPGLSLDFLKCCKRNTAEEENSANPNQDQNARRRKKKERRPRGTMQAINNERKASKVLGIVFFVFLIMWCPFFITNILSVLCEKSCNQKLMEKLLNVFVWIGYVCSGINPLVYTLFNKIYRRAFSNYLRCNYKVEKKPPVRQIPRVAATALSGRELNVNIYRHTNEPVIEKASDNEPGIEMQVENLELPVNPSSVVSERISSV
Description: as §1, §2

C57B16 mice = assay: Open-field test; assay type: in vivo; details: 3 and 5 mg/kg i.p. once daily for 7 days; FIG. 3
Excerpt: The open field test is designed to measure behavioural responses such as locomotor activity, hyperactivity, and exploratory behaviors. Open field is also used as a measure of anxiety. Rats and mice tend to avoid brightly illuminated, novel, open spaces, so the open field environment acts as an anxiogenic stimulus and allows for measurement of anxiety-induced locomotor activity and exploratory behaviors. Like the elevated maze test described below, open field testing is a one trial test with little or no impact on the animal's subsequent behavior. The apparatus for the open field test was a square (100 cm by 100 cm) made of white Perspex. Each rat is placed in a corner of the field and its behavior recorded for five minutes. All activity is recorded by a video camera mounted above the open field and scored in real-time (or digitized and scored later) by the advanced motion-recognition software package Ethovision by Noldus, that detects and analyzes the movements of the rat or mouse. The total distance, average speed, rearing/elongation behavior, and time spent in various parts of the field (such as, for example, the border areas vs. the open, middle area) is measured and analysed. Testing is carried out in a temperature, noise and light controlled room.
The Experimental protocol employed in the behavioural evaluation of Captodiamine is outlined in FIG. 7. […]

T1 sequence (P35462 whole entry, species assumed): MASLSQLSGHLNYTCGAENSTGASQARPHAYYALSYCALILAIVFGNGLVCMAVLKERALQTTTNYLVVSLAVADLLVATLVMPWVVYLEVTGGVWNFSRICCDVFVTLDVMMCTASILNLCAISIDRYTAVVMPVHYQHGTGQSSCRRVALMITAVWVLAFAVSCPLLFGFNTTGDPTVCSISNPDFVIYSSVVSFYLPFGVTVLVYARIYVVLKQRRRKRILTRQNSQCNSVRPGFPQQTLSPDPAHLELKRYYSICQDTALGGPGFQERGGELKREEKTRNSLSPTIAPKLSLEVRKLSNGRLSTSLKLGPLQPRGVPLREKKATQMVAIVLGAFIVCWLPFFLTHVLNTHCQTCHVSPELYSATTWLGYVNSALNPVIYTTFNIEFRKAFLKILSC

## CCCCSc1ccc(C(SCCN(C)C)c2ccccc2)cc1 (stereo not shown) [Captodiamine, 2-[(4-butylsulfanylphenyl)-phenyl-methyl]sulfanyl-N,N-dimethyl-ethanamin]
Dopamine D3 receptor
  inhibition at 1 µM: > 80%
Serotonin 5HT2c receptor
  inhibition at 1 µM: > 80%
C57B16 mice
  basal locomotion in the open-field paradigm: no influence on basal locomotion
  time spent in the centre of the open-field arena: significantly more time in the centre

Reference: patent US8461389B2, “Psycho-pharmaceuticals” (University College Dublin, National University of Ireland, …, priority 2008, dated 2013)
